Source: patent publication US20120283216A1, “FUNGICIDAL 2-(BICYCLIC ARYLOXY)CARBOXAMIDES” (priority 2009, published 2012)

Experiments:
Assay type in all cases: in vivo
[1] = tested on: Septoria tritici; assay: Test B: wheat leaf blotch, preventive spray on wheat seedlings, visual disease rating; details: preventive spray at 40 ppm, rated after 48 h + 19 days; for pest or weed control at 40 ppm: Zymoseptoria tritici, 504 h, read-out: Test B disease control rating (100 = 100% disease control, 0 = no disease control relative to the controls)
Procedure, shortened: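 Wheat seedlings were sprayed to run-off with 40 ppm compound (≈800 g/ha) in acetone/water with 250 ppm surfactant, then inoculated with Septoria tritici spores the next day. After 48 h saturated humidity at 20° C and 19 days in a growth chamber at 20° C, disease control was rated visually (0–100% vs controls).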

[2] = tested on: Botrytis cinerea; assay: Test C: tomato botrytis, preventive spray on tomato seedlings, visual disease rating; details: preventive spray at 40 ppm, rated after 48 h + 3 days; for pest or weed control at 40 ppm: Botrytis cinerea, 120 h, read-out: Test C disease control rating (100 = 100% disease control, 0 = no disease control relative to the controls)
Procedure, shortened: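 Compounds applied at 40 ppm (≈800 g/ha) in acetone/water with surfactant, sprayed to run-off on tomato seedlings. Inoculated next day with B. cinerea spores; 48 h saturated humidity at 20 °C, then 3 days at 27 °C. Visual rating as % disease control versus untreated controls.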

[3] = tested on: Blumeria graminis f. sp. tritici; assay: Test A: wheat powdery mildew, preventive spray on wheat seedlings, visual disease rating; details: preventive spray at 40 ppm, rated 8 days after inoculation; for pest or weed control at 40 ppm: Blumeria graminis, 192 h, read-out: Test A disease control rating (100 = 100% disease control, 0 = no disease control relative to the controls)
Procedure, shortened: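 Wheat seedlings sprayed to run-off with 40 ppm compound (equivalent to 800 g/ha) in acetone/water with 250 ppm surfactant, then dusted with B. graminis spores next day. Held at 20° C. for 8 days before visual rating, 0–100 scale as % disease control relative to controls.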

| Structure (SMILES) | pest or weed control at 40 ppm [1] | pest or weed control at 40 ppm [2] | pest or weed control at 40 ppm [3] | Test B disease control rating (100 = 100% disease control, 0 = no disease control relative to the controls) [1] | Test C disease control rating (100 = 100% disease control, 0 = no disease control relative to the controls) [2] | Test A disease control rating (100 = 100% disease control, 0 = no disease control relative to the controls) [3] |
| --- | --- | --- | --- | --- | --- | --- |
| COCC(C)(C)NC(=O)C(C)Oc1ccc2ccc(Br)cc2c1 (stereo not drawn) [Compound 24, 2-[(7-bromo-2-naphthalenyl)oxy]-N-(2-methoxy-1,1-dimethylethyl)propanamide] | 100% | 98% | 100% |  |  |  |
| CCC(Oc1cnc2ccc(I)cc2c1)C(=O)NC(C)(C)COC (stereo not drawn) [Compound 53] |  |  |  | 100% | 99% | 99% |
| CCC(Oc1ccc2ccc(N)cc2c1)C(=O)NC(C)(C)C (stereo not drawn) [Compound 29] | 76% | 95% | 0% |  |  |  |
| C#CC(C)(C)NC(=O)C(OC)Oc1ccc2ccc(OCCC)cc2c1 (stereo not drawn) [Compound 126] |  |  |  | 99% | 99% | 72% |
| COCC(C)(C)NC(=O)C(C)Oc1cnc2ccc(Br)cc2c1 (stereo not drawn) [Compound 60] |  |  |  | 74% | 95% | 0% |
| COCC(C)(C)NC(=O)C(OC)Oc1cnc2ccc(Br)cc2c1 (stereo not drawn) [Compound 154] |  |  |  | 99% | 94% | 91% |
| CCC(Oc1ccc2ccc(Br)cc2c1)C(=O)NC(C)(C)CNC(=O)OC(C)(C)C (stereo not drawn) [Compound 12] |  |  |  | 93% | 0% | 0% |
| C#CC(C)(C)NC(=O)C(OC)Oc1ccc2ccc(C(F)F)cc2c1 (stereo not drawn) [Compound 80] |  |  |  | 93% | 100% | 0% |
| C#CC(C)(C)NC(=O)C(COC)Oc1cnc2ccc(Br)cc2c1 (stereo not drawn) [Compound 36] |  |  |  | 89% | 36% | 0% |
| CCCc1ccc2ccc(OC(CC)C(=O)NC(C)(C)COC)cc2c1 (stereo not drawn) [Compound 143] |  |  |  | 100% | 99% | 98% |
| C#CC(C)(C)NC(=O)C(CC)Oc1ccc2ccc(CC)cc2c1 (stereo not drawn) [Compound 141] |  |  |  | 80% | 100% | 97% |
| CCC(Oc1ccc2ccc(Br)cc2c1)C(=O)NC1(C)CC1 (stereo not drawn) [Compound 13] | 98% | 99% | 50% |  |  |  |
| CCC(Oc1ccc2ccc(C(F)F)cc2c1)C(=O)NC(C)(C)C#N (stereo not drawn) [Compound 77] |  |  |  | 99% | 67% | 0% |
| CCC(Oc1cnc2ccc(F)cc2c1)C(=O)NC(C)(C)COC (stereo not drawn) [Compound 54] |  |  |  | 71% | 0% | 0% |
| CC#Cc1ccc2ccc(OC(OC)C(=O)NC(C)(C)COC)cc2c1 (stereo not drawn) [Compound 108, 2-methoxy-N-(2-methoxy-1,1-dimethylethyl)-2-[[7-(1-propyn-1-yl)-2-naphthalenyl]oxy]acetamide] | 100% | 48% | 100% |  |  |  |
| CCCOc1ccc2ccc(OC(OC)C(=O)NC(C)(C)COC)cc2c1 (stereo not drawn) [Compound 124] |  |  |  | 100% | 99% | 98% |
| CCC(Oc1cnc2ccc(Br)cc2c1)C(=O)NC(C)(C)CO (stereo not drawn) [Compound 39] |  |  |  | 0% | 33% | 21% |
| CCC(Oc1ccc2ccc(I)cc2c1)C(=O)NC(C)(C)COC (stereo not drawn) [Compound 92] |  |  |  | 100% | 100% | 100% |
| CCOCC(C)(C)NC(=O)C(CC)Oc1cnc2ccc(Cl)cc2c1 (stereo not drawn) [Compound 50] |  |  |  | 98% | 90% | 84% |
